19 compounds from patent publication US8114867B2, “Oxazolidinone antibiotic derivatives” (Actelion Pharmaceuticals Ltd, priority 2007, dated 2012) can be followed below.

Values after ≈ are worked out from the molar mass of the structure shown.

The first assay has as its system S. aureus 29213. Kind of assay: MIC by broth microdilution (NCCLS), S. aureus 29213. The following applies: Staphylococcus aureus, strain S. aureus 29213, cation-adjusted Mueller-Hinton Broth, pH 7.2-7.3. It counts as cell-based. The procedure: These assays have been performed following the description given in “Methods for dilution Antimicrobial Susceptibility Tests for Bacteria that Grow Aerobically, 4th ed.; Approved standard: NCCLS Document M7-A4; National Committee for Clinical Laboratory Standards: Villanova, Pa., USA, 1997”. Minimal inhibitory concentrations (MICs; mg/l) were determined in cation-adjusted Mueller-Hinton Broth (BBL) by a microdilution method following NCCLS guidelines (National Committee for Clinical Laboratory Standards. Methods for Dilution Antimicrobial Susceptibility). The pH of the test medium was 7.2-7.3.
In general terms: Broth dilution looks for growth in wells or tubes with falling amounts of substance.
The MIC is the least concentration at which growth counts as inhibited. Read a low MIC as inhibition by little substance. Compound `COc1ccc2nccc(CC(N)CNC[C@@H]3CN(c4ccc5c(c4)NC(=O)CS5)C(=O)O3)c2n1` (mixture of isomers) [Example 89, 6-((R)-5-{[(2RS)-2-amino-3-(6-methoxy-[1,5]naphthyridin-4-yl)-propylamino]-methyl}-2-oxo-oxazolidin-3-yl)-4H-benzo[1,4]thiazin-3-one] came in with an MIC of 0.125 µg/mL. On the same count and under the same terms, the same measure for `COc1ccc2ncc(F)c(CN(CCCC3CN(c4ccc5c(c4)NC(=O)CS5)C(=O)O3)C[C@@H](O)CCl)c2n1` (mixture of isomers) [Example 152, 6-((RS)-5-{3-[((R)-3-chloro-2-hydroxy-propyl)-(3-fluoro-6-methoxy-[1,5]naphthyridin-4-ylmethyl)-amino]-propyl}-2-oxo-oxazolidin-3-yl)-4H-benzo[1,4]thiazin-3-one]: at most 0.063 µg/mL. For the compound `COc1ccc2nccc(C(=O)CCCCC3CN(c4ccc5c(c4)OCCO5)C(=O)O3)c2n1` (racemic) [Example 63, rac-3-(2,3-dihydro-benzo[1,4]dioxin-6-yl)-5-[5-(6-methoxy-[1,5]naphthyridin-4-yl)-5-oxo-pentyl]-oxazolidin-2-one], the MIC is at most 0.063 µg/mL. `COc1ccc2nccc(CCNCCC3CN(c4ccc5c(c4)OCCO5)C(=O)O3)c2n1` (racemic) [Example 72, (rac)-3-(2,3-dihydro-benzo[1,4]dioxin-6-yl)-5-{2-[2-(6-methoxy-[1,5]naphthyridin-4-yl)-ethylamino]-ethyl}-oxazolidin-2-one] displayed an MIC of at most 0.063 µg/mL. On the same count and under the same terms, the figure for `COc1cnc2cccc(CN(C)C(=O)CCC3CN(c4ccc5c(c4)OCCO5)C(=O)O3)c2n1` (racemic) [Example 110, rac-3-[3-(2,3-dihydro-benzo[1,4]dioxin-6-yl)-2-oxo-oxazolidin-5-yl]-N-(3-methoxy-quinoxalin-5-ylmethyl)-N-methyl-propionamide] is at most 0.063 µg/mL; for `COc1ccc2nccc(CC[C@@H](N)CC[C@@H]3CN(c4ccc5c(c4)OCCO5)C(=O)O3)c2n1` (racemic) [Example 116, (RS)-5-[(RS)-3-amino-5-(6-methoxy-[1,5]naphthyridin-4-yl)-pentyl]-3-(2,3-dihydro-benzo[1,4]dioxin-6-yl)-oxazolidin-2-one] it is at most 0.063 µg/mL; for `COc1ccc2nccc(COCCCC3CN(c4ccc5c(c4)OCCO5)C(=O)O3)c2c1` (racemic) [Example 120, rac-3-(2,3-dihydro-benzo[1,4]dioxin-6-yl)-5-[3-(6-methoxy-quinolin-4-ylmethoxy)-propyl]-oxazolidin-2-one] it is 0.125 µg/mL (≈ 0.277 µM). Same read-out and setting: the same measure for `COc1ccc2nccc(CC[C@@H](O)CC[C@@H]3CN(c4ccc5c(c4)NC(=O)CS5)C(=O)O3)c2n1` (racemic) [Example 122, 6-{(RS)-5-[(RS)-3-hydroxy-5-(6-methoxy-[1,5]naphthyridin-4-yl)-pentyl]-2-oxo-oxazolidin-3-yl}-4H-benzo[1,4]thiazin-3-one]: at most 0.063 µg/mL. On the same count and under the same terms, the figure for `COc1ccc2nccc(CCC[C@@H](O)C[C@@H]3CN(c4ccc5c(c4)OCCO5)C(=O)O3)c2n1` (racemic) [Example 123, (RS)-3-(2,3-dihydro-benzo[1,4]dioxin-6-yl)-5-[(RS)-2-hydroxy-5-(6-methoxy-[1,5]naphthyridin-4-yl)-pentyl]oxazolidin-2-one] is at most 0.063 µg/mL; for `O=C1CSc2ccc(N3CC(CCCNCc4cccc5ccccc45)OC3=O)cc2N1` (racemic) [Example 155, rac-6-(5-{3-[(naphthalen-1-ylmethyl)-amino]-propyl}-2-oxo-oxazolidin-3-yl)-4H-benzo[1,4]thiazin-3-one] it is at most 0.063 µg/mL; for `COC(=O)c1ccc(CNCCCC2CN(c3ccc4c(c3)NC(=O)CS4)C(=O)O2)c2nc(OC)ccc12` (racemic) [Example 156, rac-2-methoxy-8-({3-[2-oxo-3-(3-oxo-3,4-dihydro-2H-benzo[1,4]thiazin-6-yl)-oxazolidin-5-yl]-propylamino}-methyl)-quinoline-5-carboxylic acid methyl ester] it is at most 0.063 µg/mL.

`COCCOc1ccc(CNCCCC2CN(c3ccc4c(c3)NC(=O)CS4)C(=O)O2)c2nc(OC)cnc12` (racemic) [Example 157, rac-6-[5-(3-{[3-methoxy-8-(2-methoxy-ethoxy)-quinoxalin-5-ylmethyl]-amino}-propyl)-2-oxo-oxazolidin-3-yl]-4H-benzo[1,4]thiazin-3-one]: the MIC amounted to 0.125 µg/mL (≈ 0.226 µM). On the same count and under the same terms, the same measure for `COc1cc2ccccc2c(CNCCCC2CN(c3ccc4c(c3)NC(=O)CS4)C(=O)O2)c1OC` (racemic) [Example 168, rac-6-(5-{3-[(2,3-dimethoxy-naphthalen-1-ylmethyl)-amino]-propyl}-2-oxo-oxazolidin-3-yl)-4H-benzo[1,4]thiazin-3-one]: at most 0.063 µg/mL; for `COc1ccc2c(OC)ccc(CNCCCC3CN(c4ccc5c(c4)NC(=O)CS5)C(=O)O3)c2c1` (racemic) [Example 169, rac-6-(5-{3-[(4,7-dimethoxy-naphthalen-1-ylmethyl)-amino]-propyl}-2-oxo-oxazolidin-3-yl)-4H-benzo[1,4]thiazin-3-one]: at most 0.063 µg/mL; for `COC(=O)CCN(CCCC1CN(c2ccc3c(c2)NC(=O)CS3)C(=O)O1)Cc1ccnc2ccc(OC)nc12` (racemic) [Example 171, rac-3-((6-methoxy-[1,5]naphthyridin-4-ylmethyl)-{3-[2-oxo-3-(3-oxo-3,4-dihydro-2H-benzo[1,4]thiazin-6-yl)-oxazolidin-5-yl]-propyl}-amino)-propionic acid methyl ester]: at most 0.063 µg/mL. Still for that read-out and setting: the same measure for `COc1cnc2cccc([C@@H](O)CNCC[C@@H]3CN(c4ccc5c(c4)OCCO5)C(=O)O3)c2n1` (relative stereo) [Example 92, (R*)-3-(2,3-dihydro-benzo[1,4]dioxin-6-yl)-5-{2-[(R*)-2-hydroxy-2-(3-methoxy-quinoxalin-5-yl)-ethylamino]-ethyl}-oxazolidin-2-one]: 0.125 µg/mL (≈ 0.268 µM); for `COc1ccc2nccc(CCNC[C@@H](O)[C@H]3CN(c4ccc5c(c4)OCCO5)C(=O)O3)c2n1` (relative stereo) [Example 97, (R*)-3-(2,3-dihydro-benzo[1,4]dioxin-6-yl)-5-{(R*)-1-hydroxy-2-[2-(6-methoxy-[1,5]naphthyridin-4-yl)-ethylamino]-ethyl}-oxazolidin-2-one]: at most 0.063 µg/mL.

The assay is the same for the next values; noted with them: strain S. aureus 29213, cation-adjusted Mueller-Hinton Broth, pH 7.2-7.3.
On to “6-((RS)-5-{[(2R,3R)-2,3-dihydroxy-3-(6-methoxy-[1,5]naphthyridin-4-yl)-propylamino]-methyl}-2-oxo-oxazolidin-3-yl)-4H-benzo[1,4]thiazin-3-one and 6-((RS)-5-{[(2S,3S)-2,3-dihydroxy-3-(6-methoxy-[1,5]naphthyridin-4-yl)-propylamino]-methyl}-2-oxo-oxazolidin-3-yl)-4H-benzo[1,4]thiazin-3-one [Example 52]”, for which the “MIC S. aureus 29213” value came to 0.25 µg/mL. On the same count and under the same terms, the same measure for `COc1ccc2ncc(F)c(CN(CCCC3CN(c4ccc5c(c4)NC(=O)CS5)C(=O)O3)C[C@@H](O)CN(C)C)c2n1` (mixture of isomers) [Example 153, 6-((RS)-5-{3-[((S)-3-dimethylamino-2-hydroxy-propyl)-(3-fluoro-6-methoxy-[1,5]naphthyridin-4-ylmethyl)-amino]-propyl}-2-oxo-oxazolidin-3-yl)-4H-1-benzo[1,4]thiazin-3-one]: “≦0.063 mg/l”.
